Numbers after ± are expanded uncertainties.
Test: refractive index (Na D-line) (dimensionless); xn = mol fraction of the nth substance listed
Conditions: 101 kPa, Liquid, Standard Abbe refractometry

CC(O)CO (stereo not given) [1,2-propanediol] + c1ccncc1
refractive index
Conditions	x2 = 0	x2 = 0.1	x2 = 0.2	x2 = 0.2999	x2 = 0.4	x2 = 0.4999	x2 = 0.6	x2 = 0.7001	x2 = 0.8	x2 = 0.9
288.15 K	1.43411 ± 0.00033	1.44356 ± 0.00032	1.4522 ± 0.00032	1.46041 ± 0.00032	1.46838 ± 0.00032	1.47609 ± 0.00032	1.48375 ± 0.00032	1.49129 ± 0.00032	1.49866 ± 0.00032	1.50554 ± 0.00031
293.15 K	1.43247 ± 0.00033	1.4418 ± 0.00033	1.4503 ± 0.00032	1.4584 ± 0.00032	1.46629 ± 0.00032	1.47383 ± 0.00032	1.4814 ± 0.00032	1.48884 ± 0.00032	1.49609 ± 0.00032	1.50288 ± 0.00032
298.15 K	1.43081 ± 0.00033	1.43993 ± 0.00033	1.44839 ± 0.00032	1.4564 ± 0.00032	1.46417 ± 0.00032	1.47163 ± 0.00032	1.47909 ± 0.00032	1.4864 ± 0.00032	1.49345 ± 0.00032	1.49993 ± 0.00032
303.15 K	1.42915 ± 0.00033	1.43816 ± 0.00032	1.4465 ± 0.00032	1.45438 ± 0.00032	1.46204 ± 0.00032	1.4694 ± 0.00032	1.47676 ± 0.00032	1.48397 ± 0.00032	1.49093 ± 0.00032	1.49727 ± 0.00032
308.15 K	1.42751 ± 0.00033	1.43643 ± 0.00032	1.44465 ± 0.00032	1.45244 ± 0.00032	1.46 ± 0.00032	1.46728 ± 0.00032	1.47448 ± 0.00032	1.48152 ± 0.00032	1.48841 ± 0.00032	1.49461 ± 0.00032
313.15 K	1.42581 ± 0.00033	1.43463 ± 0.00032	1.44276 ± 0.00032	1.45051 ± 0.00032	1.45802 ± 0.00032	1.46517 ± 0.00032	1.47224 ± 0.00032	1.4791 ± 0.00032	1.48589 ± 0.00032	1.49195 ± 0.00032
318.15 K	1.42407 ± 0.00033	1.43286 ± 0.00032	1.44082 ± 0.00032	1.44855 ± 0.00032	1.45597 ± 0.00032	1.46296 ± 0.00032	1.46991 ± 0.00032	1.47665 ± 0.00032	1.48321 ± 0.00032	1.4894 ± 0.00031
323.15 K	1.4223 ± 0.00033	1.43109 ± 0.00033	1.439 ± 0.00032	1.44676 ± 0.00032	1.45397 ± 0.00032	1.46088 ± 0.00032	1.46777 ± 0.00032	1.47441 ± 0.00032	1.48086 ± 0.00032	1.4869 ± 0.00032

c1ccncc1 [pyridine] + OCC(O)CO
refractive index
Conditions	x1 = 0.1	x1 = 0.2001	x1 = 0.3001	x1 = 0.4	x1 = 0.4998	x1 = 0.6001	x1 = 0.6999	x1 = 0.8001	x1 = 0.8999	x1 = 1
288.15 K	1.48103 ± 0.00032	1.48616 ± 0.00032	1.49108 ± 0.00032	1.49581 ± 0.00032	1.49973 ± 0.00032	1.50321 ± 0.00032	1.50634 ± 0.00032	1.50874 ± 0.00032	1.51057 ± 0.00031	1.51184 ± 0.00031
293.15 K	1.47967 ± 0.00032	1.48469 ± 0.00032	1.48946 ± 0.00032	1.49406 ± 0.00032	1.49786 ± 0.00032	1.50115 ± 0.00032	1.50412 ± 0.00032	1.50638 ± 0.00032	1.50796 ± 0.00031	1.509 ± 0.00031
298.15 K	1.47829 ± 0.00032	1.48318 ± 0.00032	1.48784 ± 0.00032	1.49227 ± 0.00032	1.49597 ± 0.00032	1.49954 ± 0.00032	1.50189 ± 0.00032	1.504 ± 0.00032	1.50535 ± 0.00031	1.50616 ± 0.00031
303.15 K	1.4769 ± 0.00032	1.48167 ± 0.00032	1.48619 ± 0.00032	1.49055 ± 0.00032	1.49411 ± 0.00032	1.49711 ± 0.00032	1.49967 ± 0.00032	1.50162 ± 0.00032	1.50275 ± 0.00031	1.50331 ± 0.00031
308.15 K	1.47553 ± 0.00032	1.48015 ± 0.00032	1.48454 ± 0.00032	1.48882 ± 0.00032	1.49222 ± 0.00032	1.49515 ± 0.00032	1.49743 ± 0.00032	1.49927 ± 0.00032	1.50017 ± 0.00031	1.50048 ± 0.00031
313.15 K	1.47412 ± 0.00032	1.47863 ± 0.00032	1.48286 ± 0.00032	1.48703 ± 0.00032	1.49024 ± 0.00032	1.49307 ± 0.00032	1.49542 ± 0.00032	1.49699 ± 0.00032	1.49777 ± 0.00031	1.49769 ± 0.00031
318.15 K	1.47272 ± 0.00032	1.47699 ± 0.00032	1.4812 ± 0.00032	1.48522 ± 0.00032	1.48844 ± 0.00032	1.49119 ± 0.00032	1.49319 ± 0.00032	1.4947 ± 0.00032	1.49512 ± 0.00031	1.49493 ± 0.00031
323.15 K	1.47138 ± 0.00032	1.47548 ± 0.00032	1.47953 ± 0.00032	1.48348 ± 0.00032	1.48658 ± 0.00032	1.48919 ± 0.00032	1.49101 ± 0.00032	1.4924 ± 0.00032	1.4926 ± 0.00031	1.49219 ± 0.00031

c1ccncc1 [pyridine] + CCCO
refractive index
Conditions	x1 = 0.1001	x1 = 0.1998	x1 = 0.2999	x1 = 0.3998	x1 = 0.5	x1 = 0.5999	x1 = 0.7	x1 = 0.8	x1 = 0.8998	x1 = 1
288.15 K	1.40196 ± 0.00031	1.41533 ± 0.00031	1.42836 ± 0.00031	1.44094 ± 0.00031	1.45341 ± 0.00031	1.46554 ± 0.00031	1.47748 ± 0.00031	1.48907 ± 0.00031	1.50064 ± 0.00031	1.51184 ± 0.00031
293.15 K	1.39979 ± 0.00031	1.41307 ± 0.00031	1.42603 ± 0.00031	1.43854 ± 0.00031	1.45095 ± 0.00031	1.46301 ± 0.00031	1.47487 ± 0.00031	1.4864 ± 0.00031	1.49788 ± 0.00032	1.509 ± 0.00031
298.15 K	1.39757 ± 0.00031	1.41079 ± 0.00031	1.42367 ± 0.00031	1.43616 ± 0.00031	1.44848 ± 0.00031	1.46047 ± 0.00031	1.47228 ± 0.00031	1.48375 ± 0.00031	1.49514 ± 0.00031	1.50616 ± 0.00031
303.15 K	1.39535 ± 0.00031	1.40849 ± 0.00031	1.42136 ± 0.00031	1.43375 ± 0.00031	1.44601 ± 0.00031	1.45795 ± 0.00031	1.46968 ± 0.00031	1.48107 ± 0.00031	1.49238 ± 0.00031	1.50331 ± 0.00031
308.15 K	1.3931 ± 0.00031	1.40618 ± 0.00031	1.41898 ± 0.00031	1.43132 ± 0.00031	1.44353 ± 0.00031	1.45541 ± 0.00031	1.46708 ± 0.00031	1.47839 ± 0.00031	1.48965 ± 0.00032	1.50048 ± 0.00031
313.15 K	1.39068 ± 0.00031	1.40381 ± 0.00031	1.41659 ± 0.00031	1.42891 ± 0.00031	1.44102 ± 0.00031	1.45287 ± 0.00031	1.46445 ± 0.00031	1.47573 ± 0.00031	1.48683 ± 0.00031	1.49769 ± 0.00031
318.15 K	1.3884 ± 0.00031	1.40151 ± 0.00031	1.41425 ± 0.00031	1.42648 ± 0.00031	1.43857 ± 0.00031	1.45038 ± 0.00031	1.46187 ± 0.00031	1.47309 ± 0.00031	1.48411 ± 0.00031	1.49493 ± 0.00031
323.15 K	1.38622 ± 0.00032	1.39909 ± 0.00031	1.41179 ± 0.00031	1.42409 ± 0.00031	1.43616 ± 0.00031	1.44788 ± 0.00031	1.45942 ± 0.00031	1.47055 ± 0.00031	1.48155 ± 0.00031	1.49219 ± 0.00031

OCCCO [propan-1,3-diol] + c1ccncc1
refractive index
Conditions	x2 = 0	x2 = 0.0999	x2 = 0.2	x2 = 0.3	x2 = 0.4001	x2 = 0.5	x2 = 0.5999	x2 = 0.7	x2 = 0.7998	x2 = 0.8998
288.15 K	1.44089 ± 0.00051	1.44922 ± 0.00048	1.45763 ± 0.00045	1.46592 ± 0.00043	1.47372 ± 0.0004	1.4809 ± 0.00038	1.48773 ± 0.00036	1.49409 ± 0.00034	1.49986 ± 0.00033	1.50582 ± 0.00032
293.15 K	1.43947 ± 0.00051	1.44774 ± 0.00048	1.45599 ± 0.00045	1.46414 ± 0.00043	1.47185 ± 0.0004	1.47889 ± 0.00038	1.48556 ± 0.00036	1.4918 ± 0.00034	1.49743 ± 0.00033	1.50319 ± 0.00032
298.15 K	1.43805 ± 0.00051	1.44619 ± 0.00048	1.45436 ± 0.00045	1.46235 ± 0.00043	1.46995 ± 0.0004	1.47685 ± 0.00038	1.4834 ± 0.00036	1.4895 ± 0.00034	1.495 ± 0.00033	1.50057 ± 0.00032
303.15 K	1.43665 ± 0.00051	1.44473 ± 0.00048	1.45279 ± 0.00045	1.46061 ± 0.00043	1.46805 ± 0.0004	1.47482 ± 0.00038	1.48124 ± 0.00036	1.4872 ± 0.00034	1.49257 ± 0.00033	1.49795 ± 0.00032
308.15 K	1.43526 ± 0.00051	1.44328 ± 0.00048	1.45118 ± 0.00045	1.45892 ± 0.00043	1.46621 ± 0.0004	1.4728 ± 0.00038	1.47907 ± 0.00036	1.48491 ± 0.00034	1.49016 ± 0.00033	1.49536 ± 0.00032
313.15 K	1.43387 ± 0.00051	1.44171 ± 0.00048	1.44953 ± 0.00045	1.45718 ± 0.00043	1.46432 ± 0.0004	1.47092 ± 0.00038	1.47707 ± 0.00036	1.48267 ± 0.00034	1.48778 ± 0.00033	1.49276 ± 0.00032
318.15 K	1.43244 ± 0.00051	1.4402 ± 0.00048	1.44788 ± 0.00045	1.45542 ± 0.00043	1.4624 ± 0.0004	1.4689 ± 0.00038	1.47491 ± 0.00036	1.48045 ± 0.00034	1.4855 ± 0.00033	1.49023 ± 0.00032
323.15 K	1.43099 ± 0.00051	1.43869 ± 0.00048	1.44628 ± 0.00045	1.45378 ± 0.00043	1.46051 ± 0.0004	1.467 ± 0.00038	1.47312 ± 0.00036	1.47837 ± 0.00034	1.4833 ± 0.00033	1.48788 ± 0.00032
